PubChem BioAssay AID1963434 (Molecular Pharmacology Branch, DTP, NCI, 2024)

System: 755483-174-R-J1-PDC complex spheroid growth, percent test/control
Assay: Anticancer human tumor 755483-174-R-J1-PDC patient-derived rhabdomyosarcoma cell line growth inhibition [Asc]
Details: for IC50: curve of first compound; for viability, T/C: stronger effect = lower value
How it was run: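 Spheroid model: tumor line + HUVEC + hMSC. Single agents and combinations; top conc. at/near clinical Cmax (10 microM if undetermined), half-log dilutions. DMSO stocks at 800-fold test concentration.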

[1] = second compound 0.03 µM, first compound 0.0316 µM
[2] = second compound 0.03 µM, first compound 0.1 µM
[3] = second compound 0.03 µM, first compound 0.316 µM
[4] = second compound 0.03 µM, first compound 1 µM
[5] = second compound 0.03 µM, first compound 3.16 µM
[6] = second compound 0.03 µM, first compound 10 µM
[7] = second compound 0.0949 µM, first compound 0.0316 µM
[8] = second compound 0.0949 µM, first compound 0.1 µM
[9] = second compound 0.0949 µM, first compound 0.316 µM
[10] = second compound 0.0949 µM, first compound 1 µM
[11] = second compound 0.0949 µM, first compound 3.16 µM
[12] = second compound 0.0949 µM, first compound 10 µM
[13] = second compound 0.3 µM, first compound 0.0316 µM
[14] = second compound 0.3 µM, first compound 0.1 µM
[15] = second compound 0.3 µM, first compound 0.316 µM
[16] = second compound 0.3 µM, first compound 1 µM
[17] = second compound 0.3 µM, first compound 3.16 µM
[18] = second compound 0.3 µM, first compound 10 µM
[19] = second compound 0.949 µM, first compound 0.0316 µM
[20] = second compound 0.949 µM, first compound 0.1 µM
[21] = second compound 0.949 µM, first compound 0.316 µM
[22] = second compound 0.949 µM, first compound 1 µM
[23] = second compound 0.949 µM, first compound 3.16 µM
[24] = second compound 0.949 µM, first compound 10 µM
[25] = second compound 3 µM, first compound 0.0316 µM
[26] = second compound 3 µM, first compound 0.1 µM
[27] = second compound 3 µM, first compound 0.316 µM
[28] = second compound 3 µM, first compound 1 µM
[29] = second compound 3 µM, first compound 3.16 µM
[30] = second compound 3 µM, first compound 10 µM
[31] = second compound 0.03 µM, first compound 0.00316 µM
[32] = second compound 0.03 µM, first compound 0.01 µM
[33] = second compound 0.0949 µM, first compound 0.00316 µM
[34] = second compound 0.0949 µM, first compound 0.01 µM
[35] = second compound 0.3 µM, first compound 0.00316 µM
[36] = second compound 0.3 µM, first compound 0.01 µM
[37] = second compound 0.949 µM, first compound 0.00316 µM
[38] = second compound 0.949 µM, first compound 0.01 µM
[39] = second compound 3 µM, first compound 0.00316 µM
[40] = second compound 3 µM, first compound 0.01 µM
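Note: spheroids exposed to compounds for seven days before readout.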

| SMILES | IC50 (second compound 0.03 µM) | IC50 (second compound 0.0949 µM) | IC50 (second compound 0.3 µM) | IC50 (second compound 0.949 µM) | IC50 (second compound 3 µM) | viability, T/C [1] | viability, T/C [2] | viability, T/C [3] | viability, T/C [4] | viability, T/C [7] | viability, T/C [8] | viability, T/C [9] | viability, T/C [10] | viability, T/C [13] | viability, T/C [14] | viability, T/C [15] | viability, T/C [16] | viability, T/C [19] | viability, T/C [20] | viability, T/C [21] | further results |
| --- | --- | --- | --- | --- | --- | --- | --- | --- | --- | --- | --- | --- | --- | --- | --- | --- | --- | --- | --- | --- | --- |
| C#Cc1c(F)ccc2cc(O)cc(-c3ncc4c(N5CC6CCC(C5)N6)nc(OCC56CCCN5CC(F)C6)nc4c3F)c12 (stereo not given) + CCN1C(C(=O)NC23CCC(C(=O)O)(CC2)CC3)C(c2cccc(Cl)c2F)C2(C(=O)Nc3cc(Cl)ccc32)C12CCCCC2 | 8790 nM | 9370 nM | 6910 nM | 8900 nM | 7200 nM | 90.5% | 96.1% | 95.5% | 120% | 135% | 110% | 128% | 121% | 79.4% | 88.4% | 143% | 89.1% | 78.9% | 79.5% | 117% | viability, T/C [5]: 71.8%; viability, T/C [6]: 47.2%; viability, T/C [11]: 59.8%; viability, T/C [12]: 49.4%; viability, T/C [17]: 91.7%; viability, T/C [18]: 30.5%; viability, T/C [22]: 118%; viability, T/C [23]: 88.2%; viability, T/C [24]: 45.7%; viability, T/C [25]: 111%; viability, T/C [26]: 106%; viability, T/C [27]: 116%; viability, T/C [28]: 114%; viability, T/C [29]: 80.6%; viability, T/C [30]: 37.8% |
| C=CC(=O)N1CCN(c2nc(=O)n(-c3c(C)ccnc3C(C)C)c3nc(-c4c(O)cccc4F)c(F)cc23)C(C)C1 (stereo not given) + CCN1C(C(=O)NC23CCC(C(=O)O)(CC2)CC3)C(c2cccc(Cl)c2F)C2(C(=O)Nc3cc(Cl)ccc32)C12CCCCC2 | > 10000 nM | > 10000 nM | > 10000 nM | > 10000 nM | > 10000 nM | 92.4% | 83.7% | 99.7% | 88.7% | 88.6% | 103% | 82.4% | 97.8% | 80.8% | 80.6% | 85.3% | 103% | 89.1% | 82.7% | 115% | viability, T/C [5]: 99.1%; viability, T/C [6]: 65.7%; viability, T/C [11]: 98.4%; viability, T/C [12]: 78%; viability, T/C [17]: 125%; viability, T/C [18]: 88.8%; viability, T/C [22]: 100%; viability, T/C [23]: 107%; viability, T/C [24]: 83.2%; viability, T/C [25]: 84.4%; viability, T/C [26]: 107%; viability, T/C [27]: 94.5%; viability, T/C [28]: 81.2%; viability, T/C [29]: 76.7%; viability, T/C [30]: 63.4% |
| CNC(C)C(=O)NC1CN(S(=O)(=O)c2cccc(S(=O)(=O)N3CCC4CCC(C(=O)NC(c5ccccc5)c5ccccc5)N4C(=O)C(NC(=O)C(C)NC)C3)c2)CCC2CCC(C(=O)NC(c3ccccc3)c3ccccc3)N2C1=O (stereo not given) + CCN1C(C(=O)NC23CCC(C(=O)O)(CC2)CC3)C(c2cccc(Cl)c2F)C2(C(=O)Nc3cc(Cl)ccc32)C12CCCCC2 | 68.5 nM | 42.9 nM | 76.7 nM | 9.97 nM | 12.5 nM | 51.9% | 52% | 39.7% | 36.2% | 51.1% | 40.9% | 43.9% | 32.5% | 56.1% | 39.1% | 46% | 59.5% | 52.6% | 56.2% | 42% | viability, T/C [31]: 80.3%; viability, T/C [32]: 65.6%; viability, T/C [33]: 74.6%; viability, T/C [34]: 64.6%; viability, T/C [35]: 76.7%; viability, T/C [36]: 80.9%; viability, T/C [37]: 92.7%; viability, T/C [38]: 48.8%; viability, T/C [22]: 34.6%; viability, T/C [39]: 51.5%; viability, T/C [40]: 54%; viability, T/C [25]: 38.8%; viability, T/C [26]: 36.8%; viability, T/C [27]: 23.5%; viability, T/C [28]: 54.1% |

Continued, in another order:

| IC50 (second compound 0.03 µM) | IC50 (second compound 0.0949 µM) | IC50 (second compound 0.3 µM) | IC50 (second compound 0.949 µM) | IC50 (second compound 3 µM) | SMILES | viability, T/C [1] | viability, T/C [2] | viability, T/C [3] | viability, T/C [4] | viability, T/C [7] | viability, T/C [8] | viability, T/C [9] | viability, T/C [10] | viability, T/C [13] | viability, T/C [14] | viability, T/C [15] | viability, T/C [16] | viability, T/C [19] | viability, T/C [20] | viability, T/C [21] | further results |
| --- | --- | --- | --- | --- | --- | --- | --- | --- | --- | --- | --- | --- | --- | --- | --- | --- | --- | --- | --- | --- | --- |
| 2170 nM | 1660 nM | 1430 nM | 1890 nM | 1600 nM | C=C(F)C(=O)N1CCN(c2nc(OCC3CCCN3C)nc3c2CCN(c2cccc4cccc(Cl)c24)C3)CC1CC#N (stereo not given) + CCN1C(C(=O)NC23CCC(C(=O)O)(CC2)CC3)C(c2cccc(Cl)c2F)C2(C(=O)Nc3cc(Cl)ccc32)C12CCCCC2 | 81% | 120% | 91.5% | 89.4% | 91.9% | 93.2% | 83.1% | 66.6% | 82.9% | 106% | 87% | 56.6% | 88.4% | 97.3% | 89.2% | viability, T/C [5]: 30.9%; viability, T/C [6]: 0.12%; viability, T/C [11]: 29.6%; viability, T/C [12]: 0.13%; viability, T/C [17]: 28.5%; viability, T/C [18]: 0.51%; viability, T/C [22]: 69.3%; viability, T/C [23]: 33.8%; viability, T/C [24]: 0.31%; viability, T/C [25]: 79.5%; viability, T/C [26]: 81.7%; viability, T/C [27]: 86.4%; viability, T/C [28]: 65.7%; viability, T/C [29]: 25.3%; viability, T/C [30]: 0.24% |
| 31.3 nM | 13.7 nM | 31.2 nM | 26.2 nM | 41.7 nM | COc1c(OCCCN2CCOCC2)ccc2c3n(c(=NC(=O)c4cnc(N)nc4)nc12)CCN3 + CCN1C(C(=O)NC23CCC(C(=O)O)(CC2)CC3)C(c2cccc(Cl)c2F)C2(C(=O)Nc3cc(Cl)ccc32)C12CCCCC2 | 49.1% | 19.2% | 8.52% | 6.46% | 48.5% | 25.9% | 25.9% | 7.18% | 46.3% | 22.7% | 12.7% | 5.77% | 45.9% | 30.7% | 12.1% | viability, T/C [31]: 70.7%; viability, T/C [32]: 70.5%; viability, T/C [33]: 75.5%; viability, T/C [34]: 39.5%; viability, T/C [35]: 82.1%; viability, T/C [36]: 89.5%; viability, T/C [37]: 75.7%; viability, T/C [38]: 64.9%; viability, T/C [22]: 9.33%; viability, T/C [39]: 53.2%; viability, T/C [40]: 64.1%; viability, T/C [25]: 59.9%; viability, T/C [26]: 21.3%; viability, T/C [27]: 13.8%; viability, T/C [28]: 7.35% |
